Like-named read-outs stand apart in the source and are kept apart here.

We go through nine compounds from patent US20150141460A1, “Anti-inflammatory Compositions” (Cambridge Enterprise Limited, priority 2007, published 2015).

Series [1] in a line: Pharmacokinetics following a single dose in rat (1 mg/kg iv, 3 mg/kg oral), LC-MS/MS, one-compartment model. In kind it is in vivo. Conditions: for bioavailability / clearance / Vd / half-life: plasma; for bioavailability: 3 mg/kg oral in 1% CMC vs 1 mg/kg iv, one-compartment model, read-out: F (%) oral bioavailability; for clearance / Vd / half-life: iv, 1 mg/kg; for Vd: read-out: Vss (L/kg) volume of distribution; for AUC(0-t): blood, single oral dose 3 mg/kg in 1% CMC, Tables 7-9, read-out: Exposure (min · ng/ml), oral exposure AUC 0-t (converted). On the procedure: Compounds were administered as a single dose (either 1 mg/kg bodyweight in 5% DMSO via the intravenous route or 3 mg/kg in 1% carboxymethylcellulose via the oral route) to three adult rats (using different rats for each compound and each route of administration).
Blood was then sampled at various time points (including just prior to dose administration) out to 24 hrs post dose, and the level of the various compounds was assessed using a validated LC-MS/MS assay. Briefly, 3-5 μl of the deproteinised sample was applied to a Waters Atlantis (C18 20×2.1 mm, 3 μm bead size) reverse phase chromatography column equilibrated in 0.1% formic acid in 95:5 water:actetonitrile. Over 3.5 minutes bound material was gradient eluted reaching 0.1% formic acid in 5:95 water:acetonitrile, followed by a step gradient back to 0.1% formic acid in 95:5 water:acetonitrile. The column eluent was then directed to an Applied Biosystems API 4000/3200 QTrap MS/MS mass spectrometer, with a TurboIonspray™ ion source operating in positive ion mode. The interface temperature was set at 650° C., with a 40 ms dwell time for each MRM transition, monitoring the following ions:
The internal standard in each determination was the related compound (S)-3-(2′,2′-dimethyl-propanoylamino)-caprolactam, which was spiked into the sample prior to deproteinization. The lower limit of quantitation (LLOQ) for this assay was 2.4 ng/ml for each compound except (I′), where it was 38.1 ng/ml.
Following LC-MS/MS analysis of each collected sample, the pharmacokinetic disposition of the compound was modelled using Kinetica software, a well known software package for such applications.
Compounds (VI) and (VII) were subject to pharmacokinetic analysis in rat using exactly the same protocols previous applied for compounds (I) through (V) in example 1.
We therefore subjected (VIII) to pharmacokinetic analysis in rat using exactly the same protocols previous applied for compounds (I′) through (VII) in examples 1 and 7.
The isolated (R)-enantiomer of (I) was therefore synthesised (exactly as described herein for the isolated (S)-enantiomer, but replacing the (S)-ornithine starting material with commercially available (R)-ornithine of high stereochemical purity), and the PK properties of this agent, in rat, was determined using the identical methodology described above (see Examples 1, 7 and 8).

Series [2] is described as follows: Identification of the primary metabolites in pooled rat urine by LC-MS-MS. Format: in vivo. Conditions: single oral dose 3 mg/kg in 1% CMC, pooled urine over 24 hrs, qualitative. How it is done: (§1) Urine was collected from rats exposed to a single oral dose (3 mg/kg in 1% CMC) of each compound over a 24 hour period in metabolic cages. The pooled urine sample was then subjected to full scan mass spectral analysis, using the same LC-MS conditions as described in example 1 above. Further MS-MS analysis of the product ions was then performed, and likely fragmentations/re-arrangements assigned from the publicly available Metabolite ID database.
For the major metabolites, the assigned structures were confirmed by synthesis of authentic samples, using methods well known in the art, which were subject to LC-MS-MS analysis under the same conditions as the urine samples.
Note that metabolite ID studies provide only qualitative estimates of the relative amounts of the different metabolites present, and separately validated assays with appropriate internal standards would be required to quantitate each metabolite species.

The nature of series [3]: Distribution of unchanged compound into tissues and urine 24 hrs after a single dose in rat. Format: in vivo. How it is done: as §1
To provide a quantitative estimate of the degree of metabolism suffered by each of the compounds tested, the amount of unchanged parent compound in urine was measured using the same validated LC-MS assay described in example 1, using (S)-3-(2′,2′-dimethylpropanoylamino)-caprolactam as an internal standard. In addition, the level of compounds in various target tissues was also determined.

Series [4] in a line: Stability in serum in vitro. Format: in vitro ADME. Particulars: human serum; 37° C. The source says:
As an approach to identifying such stable analogs, various derivatives of (S)-3-(undec-10-enoyl)-aminoglutarimide have been tested for their stability in serum.

Series [5] is described as follows: Solubility as observed (water, dosing vehicle). Conditions: 5% DMSO in saline. In kind it is physicochemical.
Series [6] has as its system chemokine-induced migration. Particulars: read-out: ED50 inhibition of chemokine-induced migration in vitro; cited from earlier work.
Series [7] concerns LPS-induced TNF-α production. In words: Sub-lethal LPS-induced endotoxemia in mice, serum TNF-α by ELISA. Format: in vivo. Conditions: for inhibition of LPS-induced TNF-α production (reference agents, previously shown): mice, dose not stated. On the procedure:
FIGS. 5A-5E show representative dose response curves for the inhibition of LPS induced TNF-α production in vivo in a murine model of sub-lethal endotoxemia. In each experiment, groups of six mice received pre-treatment with the five compounds (FIG. 5A: (II); FIG. 5B: (III); FIG. 5C: (V); FIG. 5D: (I′) and FIG. 5E: (IV)) at various doses, via either the oral route (circles) or subcutaneous route (triangles). 30-60 mins later, animals were challenged with LPS via the intraperitoneal route, and serum was prepared from a terminal bleed 3 hours later. The level of TNF-α in the blood was measured by ELISA, and the degree of inhibition of LPS-induced TNF-α production (calculated as the concentration of TNF-α in mice exposed to LPS minus the concentration of TNF-α in mice which received a sham exposure to endotoxin-free PBS) is shown on the Y-axis of each graph as the mean of six animals, with whiskers representing SEMs. The concentration of TNF-α in mice receiving LPS but no BSCI treatment was typically 5,000 to 6,000 pg/ml on average (compared to <10 pg/ml in unchallenged mice). The ED50 was estimated by linear interpolation of the presented graphs. The X-axis of each graph represents the dose of each compound administered to each mouse in the group in units of mg (1E-07 to 1).
In this assay, mice are given a non-specific pro-inflammatory challenge using bacterial endotoxin (LPS), and the extent of the systemic inflammatory response (measured by serum levels of the central pro-inflammatory cytokine TNF-α, which is essentially absent from the blood under normal conditions, but is rapidly elevated in response to a wide range of inflammatory stimuli). We have selected this model even though it is not, itself, a particularly close model of any human inflammatory disease condition, but because TNF-α is known to be important in very many diseases (including rheumatoid arthritis, autoimmune disorders, Crohn's Disease, atherosclerosis, asthma and many more). Consequently, agents which suppress TNF-α production are already used clinically (e.g. Enbrel™ and other anti-TNF-α antibody products) to treat a wide range of such diseases.
Mice (in groups of 6) were pretreated with various doses of each compound, either by the subcutaneous route 30 mins prior to LPS challenge, or by the oral route (via gavage) 60 mins prior to LPS. The mice were then challenged with an intraperitoneal injection of 750 μg of bacterial LPS and sacrificed 3 hours later. Serum was prepared from a terminal bleed by cardiac puncture, and the concentration of TNF-α is determined by ELISA (R&D Systems). In each experiment, a group of 6 mice receive no LPS to act as a negative control, and a second group receive only LPS (with no candidate inhibitor). […]
(ELISA stands for enzyme-linked immunosorbent assay.)

For series [8], the system named is leukocytes in BAL fluid. In words: Ovalbumin-induced lung inflammation model of asthma, cell counts in BAL fluid. Format: in vivo, Brown Norway rats. Particulars: 30 mg/kg daily via the oral route. The source says: Bars represent mean cell counts, shown on the Y axis in units of 10^6 cells, for groups of […] with whiskers representing SEM; * p<0.01 versus ‘sensitised’ using Student's unpaired t-test assuming equal variance, with two tails). The horizontal line represents the average number of leukocytes present in BAL fluid from the lungs of unchallenged rats. All rats in the remaining three groups received the same sensitisation and challenge regimen, but were either treated with vehicle only (‘Sensitised’), or with compound (I′) at 0.3 mg/kg bodyweight or with monteleukast (‘Singulair™’) at 30 mg/kg bodyweight, all administered daily by oral gavage.
Adult Brown Norway rats (200-300 g body weight; n=10 per group) were sensitised by a single intraperitoneal injection of 0.1 mg Ovalbumin on day 0. Each rat then received an intratracheal challenge with a solution of 1% ovalbumin (w/v) on day 8, and with 2% ovalbumin (w/v) on days 15, 18 and 21. The animals were then sacrificed 3 hours after the final challenge on day 21. […]
On sacrifice, total lung leukocyate recruitment was assessed by performing a broncheoalveolar lavage (BAL) using 4 lots of 3 ml sterile phosphate-buffered saline introduced through a tracheal cannula. For each animal, the BAL washes were combined, and the total cell population counted (using a haemocytometer). […]

The mark [9] stands for this setting: intravenous dosing 1 mg/kg, averaged across three rats, read-out: t1/2 (mins) dominant plasma half-life.

Turning to `CC1(C(=O)N[C@H]2CCCCNC2=O)CCCCC1` [(III), 3-(1′-methylcyclohexylcarbonylamino)-caprolactam], in series [1] (averaged across three rats), the bioavailability turned out to be 5%, the clearance worked out at 3.3 L/h/kg and the Vd was 0.6 L/kg. Further, the half-life in series [1] (setting [9]) worked out at 11 min. In series [2], the “major metabolites / route of metabolism detected in urine” value is given as “cytochrome P450-mediated hydroxylation”.
As to `CC(C)(C)S(=O)(=O)N[C@H]1CCCCNC1=O` [(IV), 3-(1′,1′-dimethylethylsulfonylamino)-caprolactam], the “Urine (ng/ml) unchanged parent compound” value in series [3] (24 hrs after a single oral dose 3 mg/kg in 1% CMC) stood at 1010 ng/mL. Besides, in series [3] (single oral dose 3 mg/kg in 1% CMC, 24 hrs), the “unchanged parent compound recovered in urine, % of the injected dose” value is “less than 10%”. Also, the “major metabolites / route of metabolism detected in urine” value in series [2] was “the major metabolite could not be identified”.
On to `C=CCCCCCCCCC(=O)[C@@H]1CCCNC1=O` [(S)-3-(undec-10-enoyl)-tetrahydropyridin-2-one], for which, in series [4], the “time completely stable in serum” value is listed as “at least 7 days”.
Take `O=C1NCCCC1NC(=O)C12CC3CC(CC(C3)C1)C2` (stereo not drawn) [(VII), 3-(adamanatane-1-carbonylamino)-tetrahydropyridin-2-one]: the AUC(0-t) in series [1] is 0.542 µg·h/mL. Moreover, in series [1] (averaged across three rats), the bioavailability amounted to 35%, the clearance was 1.87 L/h/kg and the Vd stood at 0.7 L/kg. The half-life in series [1] (setting [9]) amounted to 20 min. Besides, the half-life in series [1] (read-out: plasma half-life) was less than 60 min.
Take `CCCCCCCCCCC(C)(C)C(=O)NC1CCCNC1=O` (stereo not drawn) [Compound (VI), 3-(2′,2′-dimethyldodecanoylamino)-tetrahydropyridin-2-one]: the AUC(0-t) in series [1] was 0.183 µg·h/mL. Also, in series [1] (averaged across three rats), the bioavailability is 16%, the clearance is 2.42 L/h/kg and the Vd was found to be 1.95 L/kg. Also, in series [1] (setting [9]), the half-life was 46 min. The half-life in series [1] (read-out: plasma half-life) is less than 60 min. The “solubility in iv dosing vehicle” value in series [5] is “completely insoluble”.
As for `C=CCCCCCCCCC(=O)N[C@H]1CCC(=O)NC1=O` [NR58,4, (S)-3-(undec-10-enoyl)-aminoglutarimide], the EC50 in series [6] was 5 nM. Further, the “fold less potent in vivo than 3-(2′,2′-dimethylpropanoylamino)-tetrahydropyridin-2-one” value in series [7] (models of acute inflammation such as LPS-induced endotoxemia) was “at least 250 fold”.
On to `C[C@@H]1C[C@H]2[C@@H]3CCC4=CC(=O)C=C[C@]4(C)[C@@]3(F)[C@@H](O)C[C@]2(C)[C@@]1(O)C(=O)CO` [dexamethasone], for which the “inhibition of LPS-induced TNF-α production (reference agents, previously shown)” value in series [7] was “at least 90%”.
On to `CC(C)(O)c1ccccc1CC[C@@H](SCC1(CC(=O)O)CC1)c1cccc(/C=C/c2ccc3ccc(Cl)cc3n2)c1` [monteleukast], for which the “effect on the number of leukocytes in the BAL washes” value in series [8] is recorded as “significantly reduced the number of leukocytes in the BAL washes”.
Consider `O=C1CCC(N2C(=O)c3ccccc3C2=O)C(=O)N1` (stereo not drawn) [thalidomide], for which the “inhibition of LPS-induced TNF-α production (reference agents, previously shown)” value in series [7] is reported as “about 60%”.

Broadly, the bioavailability is dose-corrected exposure relative to a reference, in per cent.
